In patent publication US8653052B2, “Drug combination and its use in the treatment of muscle loss” (Acacia Pharma Limited, priority 2007, dated 2014):
Counter-ions that a name gives are not always drawn.

How the values were obtained:
cancer patients = conditions: cited from earlier work; for Effect on appetite, calorie intake and nutritional status: several clinical trials
[1] = as reported in U.S. Pat. No. 5,449,694; cited from earlier work
[2] = test system: tumour bearing rats (AH-130 Yoshida ascites hepatoma); test: Yoshida AH-130 rat ascites hepatoma cachexia model, initial experiment: total food intake; assay type: in vivo; conditions: at day 3, racemic formoterol 10 μg/kg/day, alone or with megestrol acetate 100 mg/kg/day
Source text: This study involves the use of the Yoshida AH-130 rat ascites hepatoma model, which is a particularly suitable model system for studying the mechanisms involved in the establishment of cachexia. Its growth in the host causes rapid and progressive loss of bodyweight and tissue wasting, particularly in skeletal muscle. […] Co-administration of each of these β2 agonists with the progestin, megestrol acetate, is also investigated.
Wistar rats weighing about 100 g are used (Busquets et al 2004, Cancer Res 64:6725-6731). The animals are maintained on a regular light-dark cycle (light from 08.00 am to 8.00 pm) with free access to food and water. Their diet consists of 54% carbohydrate, 17% protein and 5% fat, and the food intake is measured daily. Rats are given an intraperitoneal inoculum of 10^8 AH-130 Yoshida ascites hepatoma cells obtained from exponential tumours.
The animals were divided into groups: those receiving the test drugs and those receiving vehicle. Drug administration is by subcutaneous injection. Seven days after tumour transplantation, the animals are weighed and anaesthetised with a ketamine/xylacine mixture. The tumour is harvested from the peritoneal cavity, and its volume and cellularity evaluated. […]
In an initial experiment, the tumour bearing rats were divided into three groups. […] The rats were monitored over a 3 day period.

In the case of CC(=O)O[C@]1(C(C)=O)CC[C@H]2[C@@H]3C=C(C)C4=CC(=O)CC[C@]4(C)[C@H]3CC[C@@]21C [megestrol acetate], the “Cancer patients treated with a weight gain of greater than 5%” value (cancer patients; cancer patients, significant component of the gain due to fat) is given as 15% and the “Effect on appetite, calorie intake and nutritional status” value (cancer patients) is given as “improve appetite, calorie intake and nutritional status”.

For C[C@@H](NCCc1ccc(O)cc1)[C@@H](O)c1ccc(O)cc1.Cl (single isomer, unassigned) [(−)-ritodrine], the “Relative potency of enantiomers” value [1] is given as “more potent enantiomer”.

In the case of CC(=O)O[C@]1(C(C)=O)CC[C@H]2[C@@H]3C[C@H](C)C4=CC(=O)CC[C@]4(C)[C@H]3CC[C@@]21C [medroxy-progesterone acetate], the “Effect on appetite, calorie intake and nutritional status” value (cancer patients) is given as “improve appetite, calorie intake and nutritional status”.

Work on COc1ccc(CC(C)NCC(O)c2ccc(O)c(NC=O)c2)cc1 (racemic) [racemic formoterol, (±)-N-[2-Hydroxy-5-[1(R*)-hydroxy-2-[1(R*)-methyl-2-(4-methoxyphenyl)ethylamino]ethyl]phenyl]formamide fumarate (2:1) monohydrate] yielded a Total food intake [2] of 45±2 g/100 g rat.
